Columns and labels:
[1] = tested on: children with HGPS; conditions: children with HGPS treated with lonafarnib in clinical trials; cited from earlier work
[2] = tested on: plasma progerin; test: Plasma progerin (SMC Progerin Immunoassay) in HGPS clinical trial patients on therapy; type: in vivo, human
From the text: An SMC ultrasensitive immunoassay for the detection of plasma progerin was developed. Overall, the assay employed a sandwich immunoassay format with an anti-lamin A capture antibody coated on magnetic microparticles, and an anti-progerin specific detection antibody conjugated to a fluorescent tag (FIG. 1) run in a 96-well plate. Progerin-bound detection antibody was eluted and read as single molecules using a confocal laser.
The SMC assay for measuring Progerin was as previously described (Todd et al.), except that magnetic microparticles (MP) coated with capture antibodies and detection reagents were specific to the progerin assay (FIG. 1). […] Progerin-bound detection antibody was then eluted by pH shift using a proprietary glycine buffer, transferred to a new plate and detected by SMC using the Erenna Immunoassay System software (SgxLink™). The raw signal data and the interpolated value data obtained from SgxLink were transferred to Excel where precision was then calculated for the replicate wells. […]
For analysis, samples were fully thawed at RT for <5 min, lightly mixed, diluted in standard diluent before transferring into filter plate wells (MilliporeSigma MSBVN1210). […] Filtrate was then assessed as described. […]

SMILES: NC(=O)N1CCC(CC(=O)N2CCC([C@H]3c4ncc(Br)cc4CCc4cc(Cl)cc(Br)c43)CC2)CC1 [lonafarnib]
- increased survival, estimated, on average [1]: 2.5 years
- average progerin, lonafarnib monotherapy extension visits versus consecutive Triple Therapy visits ([2]; 10 patients, extension of additional 4.1±0.5 years, p=0.99): no significant differences
- progerin at 150 mg/m^2 versus the 115 mg/m^2 dose ([2]; ProLon1, each of the 4 trial visits after the 8-month visit, N=22-25, all p<0.05): significantly decreased
